Experimental data published in ChEMBL document CHEMBL5137101, “Application of Selective SMARCA2/4 PROTAC for Mutant Cancer Therapy” (ACS Med Chem Lett, 2022).

Assays:
Format in all cases: cell-based
[1] = biological target: von Hippel-Lindau disease tumor suppressor/SWI/SNF-related matrix-associated actin-dependent regulator of chromatin subfamily A member 2 (Homo sapiens) (UniProt P51531+P40337); test: Protac activity at E3 ubiquitin-protein ligase/SMARCA2 in human VCaP cells assessed as SMARCA2 degradation at 100 nM incubated for 16 hrs by Western blot analysis relative to control
Sequence of von Hippel-Lindau disease tumor suppressor/SWI/SNF-related matrix-associated actin-dependent regulator of chromatin subfamily A member 2 (Homo sapiens) (P40337 whole entry, looked up): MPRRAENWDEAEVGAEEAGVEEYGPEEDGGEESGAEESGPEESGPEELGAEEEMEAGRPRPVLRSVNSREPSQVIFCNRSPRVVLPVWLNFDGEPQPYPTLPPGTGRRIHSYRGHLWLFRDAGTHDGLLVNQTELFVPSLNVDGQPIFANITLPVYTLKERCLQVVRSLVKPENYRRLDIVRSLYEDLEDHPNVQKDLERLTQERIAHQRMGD
Sequence of von Hippel-Lindau disease tumor suppressor/SWI/SNF-related matrix-associated actin-dependent regulator of chromatin subfamily A member 2 (Homo sapiens) (P51531 whole entry, looked up): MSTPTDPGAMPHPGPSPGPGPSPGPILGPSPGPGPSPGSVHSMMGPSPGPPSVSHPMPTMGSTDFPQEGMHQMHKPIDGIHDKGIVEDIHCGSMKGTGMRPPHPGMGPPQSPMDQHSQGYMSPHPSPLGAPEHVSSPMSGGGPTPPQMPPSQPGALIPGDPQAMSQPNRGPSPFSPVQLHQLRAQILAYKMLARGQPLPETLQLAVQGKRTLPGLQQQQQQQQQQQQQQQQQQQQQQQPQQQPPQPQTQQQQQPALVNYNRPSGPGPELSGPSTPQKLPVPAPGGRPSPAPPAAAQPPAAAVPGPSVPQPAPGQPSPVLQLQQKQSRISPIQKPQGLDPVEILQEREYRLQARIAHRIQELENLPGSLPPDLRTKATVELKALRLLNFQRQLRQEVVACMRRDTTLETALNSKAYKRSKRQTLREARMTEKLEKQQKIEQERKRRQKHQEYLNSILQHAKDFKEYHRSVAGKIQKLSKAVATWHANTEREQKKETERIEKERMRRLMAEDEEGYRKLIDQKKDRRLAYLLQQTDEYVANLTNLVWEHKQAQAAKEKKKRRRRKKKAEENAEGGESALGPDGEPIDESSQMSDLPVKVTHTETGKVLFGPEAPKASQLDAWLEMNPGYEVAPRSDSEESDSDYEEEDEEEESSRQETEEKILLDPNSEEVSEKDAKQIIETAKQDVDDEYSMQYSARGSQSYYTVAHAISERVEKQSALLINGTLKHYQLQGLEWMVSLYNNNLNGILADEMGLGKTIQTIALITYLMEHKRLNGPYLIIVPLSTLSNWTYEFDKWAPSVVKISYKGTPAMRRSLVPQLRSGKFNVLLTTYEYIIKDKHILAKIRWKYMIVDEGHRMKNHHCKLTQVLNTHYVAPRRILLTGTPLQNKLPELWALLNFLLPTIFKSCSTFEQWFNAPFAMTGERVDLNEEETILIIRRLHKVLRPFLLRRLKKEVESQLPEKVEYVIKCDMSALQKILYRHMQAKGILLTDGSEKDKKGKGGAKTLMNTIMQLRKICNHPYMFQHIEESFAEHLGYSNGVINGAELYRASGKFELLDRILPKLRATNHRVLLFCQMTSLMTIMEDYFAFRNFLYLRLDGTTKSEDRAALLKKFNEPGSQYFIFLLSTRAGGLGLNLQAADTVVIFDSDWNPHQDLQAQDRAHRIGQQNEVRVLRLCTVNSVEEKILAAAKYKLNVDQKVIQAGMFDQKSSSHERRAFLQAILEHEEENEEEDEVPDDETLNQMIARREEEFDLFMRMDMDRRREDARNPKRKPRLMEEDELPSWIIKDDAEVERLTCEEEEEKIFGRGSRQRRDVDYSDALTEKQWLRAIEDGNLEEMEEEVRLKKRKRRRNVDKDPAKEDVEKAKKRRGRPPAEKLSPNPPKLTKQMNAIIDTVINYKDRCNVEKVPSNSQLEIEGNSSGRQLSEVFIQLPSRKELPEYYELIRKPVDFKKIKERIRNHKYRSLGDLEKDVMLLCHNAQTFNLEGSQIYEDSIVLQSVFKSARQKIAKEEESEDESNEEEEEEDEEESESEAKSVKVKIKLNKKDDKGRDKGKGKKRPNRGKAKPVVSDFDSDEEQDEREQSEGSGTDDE

[2] = biological target: von Hippel-Lindau disease tumor suppressor/SWI/SNF-related matrix-associated actin-dependent regulator of chromatin subfamily A member 4 (Homo sapiens) (UniProt P51532+P40337); test: Protac activity at E3 ubiquitin-protein ligase/SMARCA4 in human VCaP cells assessed as SMARCA4 degradation at 100 nM incubated for 16 hrs by Western blot analysis relative to control
Sequence of von Hippel-Lindau disease tumor suppressor/SWI/SNF-related matrix-associated actin-dependent regulator of chromatin subfamily A member 4 (Homo sapiens) (P40337 whole entry, looked up): as the sequence (P40337 whole entry, looked up) above
Sequence of von Hippel-Lindau disease tumor suppressor/SWI/SNF-related matrix-associated actin-dependent regulator of chromatin subfamily A member 4 (Homo sapiens) (P51532 whole entry, looked up): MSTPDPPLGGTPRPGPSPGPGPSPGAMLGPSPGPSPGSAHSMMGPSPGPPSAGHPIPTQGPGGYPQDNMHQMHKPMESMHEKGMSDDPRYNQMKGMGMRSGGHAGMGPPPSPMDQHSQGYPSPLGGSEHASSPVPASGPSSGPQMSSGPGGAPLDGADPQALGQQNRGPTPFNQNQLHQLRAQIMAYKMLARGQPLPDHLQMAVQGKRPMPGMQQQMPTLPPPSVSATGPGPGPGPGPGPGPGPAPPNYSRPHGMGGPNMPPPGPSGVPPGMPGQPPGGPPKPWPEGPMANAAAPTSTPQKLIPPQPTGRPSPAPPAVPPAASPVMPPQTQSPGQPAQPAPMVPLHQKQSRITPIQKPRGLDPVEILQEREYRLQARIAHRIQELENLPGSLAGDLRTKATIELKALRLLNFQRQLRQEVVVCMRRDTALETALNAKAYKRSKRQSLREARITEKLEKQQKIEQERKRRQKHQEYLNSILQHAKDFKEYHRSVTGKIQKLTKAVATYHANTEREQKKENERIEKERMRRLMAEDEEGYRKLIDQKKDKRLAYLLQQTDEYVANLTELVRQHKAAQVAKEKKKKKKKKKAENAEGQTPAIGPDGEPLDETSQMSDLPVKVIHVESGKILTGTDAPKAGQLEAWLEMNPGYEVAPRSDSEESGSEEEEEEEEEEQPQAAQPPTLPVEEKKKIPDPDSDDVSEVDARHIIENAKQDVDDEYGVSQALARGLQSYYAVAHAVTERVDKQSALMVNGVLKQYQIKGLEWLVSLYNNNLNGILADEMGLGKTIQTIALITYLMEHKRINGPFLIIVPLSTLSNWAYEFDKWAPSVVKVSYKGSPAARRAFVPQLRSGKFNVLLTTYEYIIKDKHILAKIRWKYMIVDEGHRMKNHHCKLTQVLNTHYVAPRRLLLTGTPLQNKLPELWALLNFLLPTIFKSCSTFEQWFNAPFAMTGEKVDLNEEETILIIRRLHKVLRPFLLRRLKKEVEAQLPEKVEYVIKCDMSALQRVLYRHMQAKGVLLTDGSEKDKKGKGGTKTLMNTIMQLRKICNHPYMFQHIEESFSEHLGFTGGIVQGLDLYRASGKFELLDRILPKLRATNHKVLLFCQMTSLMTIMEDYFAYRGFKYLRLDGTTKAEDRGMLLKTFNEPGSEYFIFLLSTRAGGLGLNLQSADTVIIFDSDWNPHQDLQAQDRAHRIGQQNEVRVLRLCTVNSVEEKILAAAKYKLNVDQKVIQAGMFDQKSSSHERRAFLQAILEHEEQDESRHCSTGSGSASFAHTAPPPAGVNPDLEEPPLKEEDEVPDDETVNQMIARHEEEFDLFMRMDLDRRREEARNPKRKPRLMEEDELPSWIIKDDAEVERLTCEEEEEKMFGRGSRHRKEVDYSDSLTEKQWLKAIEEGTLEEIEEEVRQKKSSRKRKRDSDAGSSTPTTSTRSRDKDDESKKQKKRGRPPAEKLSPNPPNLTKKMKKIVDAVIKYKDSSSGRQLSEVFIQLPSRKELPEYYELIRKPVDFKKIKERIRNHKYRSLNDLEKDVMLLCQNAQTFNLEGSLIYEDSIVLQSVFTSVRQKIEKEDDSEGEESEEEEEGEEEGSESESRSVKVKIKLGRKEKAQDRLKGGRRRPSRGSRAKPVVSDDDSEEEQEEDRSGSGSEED

[3] = biological target: von Hippel-Lindau disease tumor suppressor/SWI/SNF-related matrix-associated actin-dependent regulator of chromatin subfamily A member 4 (Homo sapiens, UniProt P40337+P51532); test: Protac activity at E3 ubiquitin-protein ligase/SMARCA4 in human VCaP cells assessed as SMARCA4 degradation incubated for 16 hrs by Western blot analysis relative to control
Sequence of von Hippel-Lindau disease tumor suppressor/SWI/SNF-related matrix-associated actin-dependent regulator of chromatin subfamily A member 4 (P51532 whole entry): as the sequence (P51532 whole entry, looked up) above
Sequence of von Hippel-Lindau disease tumor suppressor/SWI/SNF-related matrix-associated actin-dependent regulator of chromatin subfamily A member 4 (P40337 whole entry): as the sequence (P40337 whole entry, looked up) above

[4] = biological target: von Hippel-Lindau disease tumor suppressor/SWI/SNF-related matrix-associated actin-dependent regulator of chromatin subfamily A member 2 (Homo sapiens, UniProt P40337+P51531); test: Protac activity at E3 ubiquitin-protein ligase/SMARCA2 in human VCaP cells assessed as SMARCA2 degradation incubated for 16 hrs by Western blot analysis relative to control
Sequence of von Hippel-Lindau disease tumor suppressor/SWI/SNF-related matrix-associated actin-dependent regulator of chromatin subfamily A member 2 (P51531 whole entry): as the sequence (P51531 whole entry, looked up) above
Sequence of von Hippel-Lindau disease tumor suppressor/SWI/SNF-related matrix-associated actin-dependent regulator of chromatin subfamily A member 2 (P40337 whole entry): as the sequence (P40337 whole entry, looked up) above

## Cc1ncsc1-c1ccc(CNC(=O)[C@@H]2C[C@@H](O)CN2C(=O)[C@@H](NC(=O)CN2CCC(c3ccc(-c4cnnc(-c5ccccc5O)c4)cc3)CC2)C(C)(C)C)cc1
[1]
  Activity: 75%
[2]
  Activity: 0%

## Cc1ncsc1-c1ccc([C@H](C)NC(=O)[C@@H]2C[C@@H](O)CN2C(=O)[C@@H](NC(=O)CC2CCN(c3ccc(-c4cnnc(-c5ccccc5O)c4)cc3)CC2)C(C)(C)C)cc1
[3]
  EC50: < 250 nM
[1]
  Activity: 97%
[4]
  EC50: < 250 nM
[2]
  Activity: 40%

## Cc1ncsc1-c1ccc([C@H](C)NC(=O)[C@@H]2C[C@@H](O)CN2C(=O)[C@@H](NC(=O)CN2CCN(c3ccc(-c4cnnc(-c5ccccc5O)c4)cn3)CC2)C(C)(C)C)cc1
[3]
  EC50: < 250 nM
[1]
  Activity: 94%
[4]
  EC50: < 250 nM
[2]
  Activity: 0%

## Cc1ncsc1-c1ccc([C@H](C)NC(=O)[C@@H]2C[C@@H](O)CN2C(=O)[C@@H](NC(=O)CN2CCN(c3ccc(-c4cnnc(-c5ccccc5O)c4)cc3)CC2)C(C)(C)C)cc1
[3]
  EC50: < 250 nM
[1]
  Activity: 94%
[4]
  EC50: < 250 nM
[2]
  Activity: 0%

## Cc1ncsc1-c1ccc([C@H](C)NC(=O)[C@@H]2C[C@@H](O)CN2C(=O)[C@@H](NC(=O)C2CCN(c3ccc(-c4cnnc(-c5ccccc5O)c4)cc3)CC2)C(C)(C)C)cc1
[1]
  Activity: 76%
[2]
  Activity: 0%

## Cc1ncsc1-c1ccc([C@H](C)NC(=O)[C@@H]2C[C@@H](O)CN2C(=O)[C@@H](NC(=O)CN2CCC(c3ccc(-c4cnnc(-c5ccccc5O)c4)cc3)CC2)C(C)(C)C)cc1
[3]
  EC50: < 250 nM
[1]
  Activity: 91%
[4]
  EC50: < 250 nM
[2]
  Activity: 0%
